Measurements reported in patent EP0478235A2, “A directed biosynthesis for an immunomycin derivative” (MERCK & CO. INC., priority 1990, dated 1992).

Test system: T lymphocytes
Test: T-cell proliferation assay (tritiated thymidine incorporation, ionomycin + PMA stimulation)
Type: cell-based, C57B1/6 mice
Details: T-lymphocyte
Method: Purified compound, or fractions, prepared by HPLC, was dissolved in absolute ethanol at a final concentration of 100 µg/ml.
Spleens from C57B1/6 mice were taken under sterile conditions and gently dissociated in ice-cold RPMI 1640 culture medium (GIBCO, Grand Island, N. Y.) supplemented with 10% heat-inactivated fetal calf serum (GIBCO). Cells were pelleted by centrifugation at 1500 rpm for 8 minutes. Contaminating red cells were removed by treating the pellet with ammonium chloride lysing buffer (GIBCO) for 2 minutes at 4°C. Cold medium was added and cells were again centrifuged at 1500 rpm for 8 minutes. T lymphocytes were then isolated by separation of the cell suspension on nylon wool columns as follows: Nylon wool columns were prepared by packing approximately 4 grams of washed and dried nylon wool into 20 ml plastic syringes. The columns were sterilized by autoclaving at 250°F for 30 minutes. Nylon wool columns were wetted with warm (37°C) culture medium and rinsed with the same medium. Washed spleen cells resuspended in warm medium were slowly applied to the nylon wool. The columns were then incubated in an upright position at 37°C for 1 hour. Non-adherent T lymphocytes were eluted from the columns with warm culture medium and the cell suspensions were spun as above.
Purified T lymphocytes were resuspended at […] in complete culture medium composed of RPMI 1640 medium with 10% heat-inactivated fetal calf serum, […], 1mM sodium pyruvate, 2 x 10⁻⁵M 2-mercaptoethanol and 50 µg/ml gentamycin. Ionomycin was added at 250 ng/ml and PMA at 10 ng/ml. The cell suspension was immediately distributed into 96 well flat-bottom microculture plates (Costar) at 200 µl/well. The control, being the medium without test drug, and various below-indicated dilutions of the sample (above-described purified prolylimmunomycin) to be tested were then added in triplicate wells at 20 µl/well. FK-520 was used as a standard. The culture plates were then incubated at 37°C in a humidified atmosphere of 5% CO₂-95% air for 44 hours. The proliferation of T lymphocytes was assessed by measurement of tritiated thymidine incorporation. After 44 hours of culturing, the cells were pulse-labelled with 2 µCi/well of tritiated thymidine (NEN, Cambridge, MA). After another 4 hours of incubation, cultures were harvested on glass fiber filters using a multiple sample harvester. Radioactivity of filter discs corresponding to individual wells as measured by standard liquid scintillation counting methods (Betacounter). Mean counts per minute of replicate wells were calculated and the results expressed as percent inhibition of tritiated thymidine uptake (profileration) as follows: Inhibition = 100 -(Mean cpm sample tested X 100.)/(Mean cpm control medium) [formula]

| Compound | inhibition at 0.004 µg/mL (Mus musculus, 4 ng/ml, standard) [%] | inhibition at 0.0019 µg/mL (1.9 ng/ml, mouse T cell cultures pulsed with 3H-thymidine for 4 hours prior to harvesting at 48 hours) [%] | inhibition at 0.0039 µg/mL (3.9 ng/ml, mouse T cell cultures pulsed with 3H-thymidine for 4 hours prior to harvesting at 48 hours) [%] | inhibition at 0.0078 µg/mL (7.8 ng/ml, mouse T cell cultures pulsed with 3H-thymidine for 4 hours prior to harvesting at 48 hours) [%] | inhibition at 0.0155 µg/mL (15.5 ng/ml, mouse T cell cultures pulsed with 3H-thymidine for 4 hours prior to harvesting at 48 hours) [%] | inhibition at 0.031 µg/mL (31.0 ng/ml, mouse T cell cultures pulsed with 3H-thymidine for 4 hours prior to harvesting at 48 hours) [%] | inhibition at 0.062 µg/mL (62.0 ng/ml, mouse T cell cultures pulsed with 3H-thymidine for 4 hours prior to harvesting at 48 hours) [%] |
| --- | --- | --- | --- | --- | --- | --- | --- |
| CC[C@@H]1/C=C(\C)C[C@H](C)C[C@H](OC)[C@H]2O[C@@](O)(C(=O)C(=O)N3CCCC[C@H]3C(=O)O[C@H](/C(C)=C/[C@@H]3CC[C@@H](O)[C@H](OC)C3)[C@H](C)[C@@H](O)CC1=O)[C@H](C)C[C@@H]2OC [FK-520, immunomycin] | 99 | – | – | – | – | – | – |
| CC[C@@H]1/C=C(\C)C[C@H](C)C[C@H](OC)[C@H]2O[C@@](O)(C(=O)C(=O)N3CCC[C@H]3C(=O)O[C@H](/C(C)=C/[C@@H]3CC[C@@H](O)[C@H](OC)C3)[C@H](C)[C@@H](O)CC1=O)[C@H](C)C[C@@H]2OC [Prolyl-Immunomycin, prolyl-immunomycin] | – | 8.2 | 47 | 84.8 | 94.3 | 96.3 | 97.8 |
